This is an account of results in ChEMBL document CHEMBL1133000, “Inhibition of protein kinase C(alpha) by dequalinium analogues: dependence on linker length and geometry” (J Med Chem, 2000).

For the experiment, the target named is Protein kinase C alpha type (Homo sapiens, UniProt P17252). Put plainly: Inhibition of human recombinant PKCalpha.
One may read the IC50 as the point on the concentration scale where inhibition reaches its midpoint. Regarding `Cc1cc(N)c2ccccc2[n+]1CCCC/C=C\CCCC[n+]1c(C)cc(N)c2ccccc21`, the IC50 was found to be 52 µM. In the case of `CCCC/C=C/CCCC[n+]1c(C)cc(N)c2ccccc21` it was 137 µM; in that of `Cc1cc(N)c2ccccc2[n+]1CCCC/C=C/CCCC[n+]1c(C)cc(N)c2ccccc21`, 12 µM.
